Data taken from US20020001582A1, “Methods and compositions for inhibiting microbial growth” (priority 1999, published 2002).

Experiments:
G. graminis = assay: Suppression of fungal disease on young bentgrass, greenhouse trial; type: in vivo; details: 5,000 and 10,000 ppm
Method: (§1) Creeping bentgrass (Agrotis spp.) cv. Penncross was used as the host in the greenhouse trials. This species is widely used in golf greens and is easily managed under greenhouse conditions. Bentgrass was seeded in 6 cm diameter and 5 cm height pots (made from PVC pipes) containing steam sterilized river washed sand. A seeding rate of 0.1 g/pot was used to ensure rapid establishment of a uniform, dense stand. Throughout the experiment, the grass was regularly watered, fertilized and maintained at a cutting height approximately 2.0 cm above the soil surface.
(§2) Virulent isolates of test fungi were grown on a rye grain medium for approximately one week. This medium consisted of 50 g of rye grain, 1 g of CaCO3, and 75 ml of water. It was prepared in a 250 ml Erlenmeyer flask and autoclaved for 30 minutes. Three to five plugs of the actively growing mycelia from week old cultures on potato dextrose agar were transferred into flasks, and incubated in the dark at room temperature.
(§3) Pots of eight-week-old bentgrass were inoculated with the test fungi by placing 2-3 kernels of infected rye in the center of the grass area, just above the soil surface. After inoculation, pots were placed in humidity chambers on a greenhouse bench. Temperature during incubation was maintained at 27-30° C. for disease development and the growth of the test fungi.
(§4) Approximately 1.6-2.4 ml was applied to each pot and the treatment was repeated 24 hours later. Untreated bentgrass was used as a control. All treatments were replicated 8 times and arranged in a completely randomized design. This trial was repeated three times.

S. homoeocarpa = assay: as above; type: in vivo
Method: as §1, §2, §3, §4

M. nivale = assay: as above; type: in vivo, M. nivale on creeping bentgrass (Agrotis spp.) cv. Penncross; details: 5,000 and 10,000 ppm
Method: as §1, §2
Pots of eight-week-old bentgrass were inoculated with the test fungi by placing 2-3 kernels of infected rye in the center of the grass area, just above the soil surface. After inoculation, pots were placed in humidity chambers on a greenhouse bench. Temperature during incubation was maintained at 27-30° C. for disease development and the growth of the test fungi. […]

Sclerotinia homoeocarpa [1] = assay: Protective treatment of mature bentgrass (lysozyme 24 hours before inoculation); type: in vivo
Method: (§5) One year old bentgrass (Agrotis spp.) cv Pennlink was used as the host in this trial. It was grown in an open field at Select Sand Farm in Fort Langley, B.C. Round pieces of turfgrass, 6 cm diameter, were cut out and placed on 5 cm high pots (made from PVC pipes) containing steam sterilized river washed sand. The potted grass was regularly watered, fertilized and maintained at a cutting height of approximately 2.0 cm above the soil surface.
(§6) The efficacy of egg white lysozyme was tested on Sclerotinia homoeocarpa. Virulent isolates of the test fungi were grown on a rye grain medium for approximately one week. This medium consisted of 50 g of rye grain, 1 g of CaCO3, and 75 ml of water. The medium was prepared in a 250 ml Erlenmeyer flask and autoclaved for 30 minutes. Three to five plugs of the actively growing mycelia from one-week-old culture on potato dextrose agar were transferred into flasks, and incubated in the dark at room temperature.
Lysozyme was applied with a hand held spray bottle. Treated and untreated bentgrass was then inoculated with the test fungi by placing 3 infected rye kernels in the center of the pot, just above the soil surface. After inoculation, the pots were placed in humidity chambers on a greenhouse bench. […]
(§7) Pots were removed from the humidity chamber and evaluated individually for disease severity. […]

Sclerotinia homoeocarpa [2] = assay: Suppressive treatment of mature bentgrass (lysozyme 24 and 48 hours after inoculation); type: in vivo; details: day 7, 14 or 21, except 5,000 ppm on day 21
Method: as §5, §6
In a second test three weeks after it was potted, the bentgrass was first inoculated with the test fungi by placing 3 infected rye kernels in the center of the pot, just above the soil surface. After inoculation, the pots were placed in humidity chambers on a greenhouse bench. Temperature during incubation was maintained at 27-30° C. for disease development. […]
as §7

[3] = tested on: Pythium sylvaticom (IM195); assay: Inhibition of Pythium by lysozyme in PD broth, % plate coverage; type: cell-based
Method: (§8) Potato dextrose broth was prepared, poured into glass dilution bottles (100 ml each), autoclaved and allowed to cool. […] A fungal square (plug) of each culture was cut and placed in/near the center of each plate. Fungal growth was quantified by measuring the diameter of growth of each fungus while it was growing on the liquid media in each petri dish using a ruler. Each treatment was done in triplicate.
(§9) The experiment was repeated three times (three batches). The observation period for each batch was 2 weeks.
(§10) The fungal growth was expressed in % coverage of the petri dishes by the fungal patches. The calculation can be presented in the following equation:
(§11) Fungal growth (%)=(area of fungal patch/total plate area)×100

[4] = tested on: Pythium torrulesum (IM193); assay: as above; type: cell-based; details: for fungal coverage of the plates: end of 2 weeks
Method: as §8, §9, §10, §11

[5] = tested on: Phytophthora cinnamomi (IM194); assay: Inhibition of Phytophthora by lysozyme in PD broth, % plate coverage; type: cell-based; details: for fungal growth (% plate coverage): 2 weeks after inoculation
Method: as §8, §9, §10, §11

IM114 (Monilinia) = assay: Inhibition of Monilinia by lysozyme in PD broth, % plate coverage; type: cell-based
Method: (§12) Monilinia was grown in petri dishes on PD agar. Potato dextrose broth was prepared, poured into glass dilution bottles (100 ml each), autoclaved and allowed to cool. […] A fungal square (plug) of each culture was cut and placed in/near the center of each plate. Fungal growth was quantified by measuring the diameter of growth of each fungus while it was growing on the liquid media in each petri dish using a ruler. Each treatment was done with triplicates. The experiment was repeated three times (three batches). The observation period for each batch was 2 weeks.
(§13) The fungal growth was expressed in % coverage of the petri dishes by the fungal patches. The calculation is presented in the following equation:
as §11
(§14) The average plate coverage for the treatments was plotted against the time after inoculation (FIGS. 20 and 21). Statistical analysis was carried out using SigmaStat (Version 2.0, SPSS Science, 1997).

IM115 (Monilinia) = assay: as above; type: cell-based
Method: as §12, §13, §11, §14

For “lysozyme: type c egg white lysozyme, enzyme of approximately 129 amino acids; commercially available from Canadian Inovatech, Inc.”, the “control against G. graminis” value (G. graminis) was “good control”, the “S. homoeocarpa inhibition compared to the untreated control” value (S. homoeocarpa; 2,500, 5,000 and 10,000 ppm sprayed 24 and 48 h after inoculation, day 7, 14 and 21) was “significant S. homoeocarpa inhibition” and the “infection compared with bentgrass treated with 2,500 ppm” value (S. homoeocarpa; 5,000 and 10,000 ppm, day 14 and 21 after inoculation) was “significantly less infection”. The “control against M. nivale” value (M. nivale) was “good control”, the “differences in disease severity among the three lysozyme concentrations” value (Sclerotinia homoeocarpa [1]; 5,000, 10,000, 20,000 ppm) was “no significant differences” and the “disease severity compared to the untreated control” value (Sclerotinia homoeocarpa [1]; 5,000, 10,000 or 20,000 ppm, day 7, 10 or 21 after inoculation, p≦0.01) was “significant reductions”. For the same substance, the “reducing the infection of S. homoeocarpa” value (Sclerotinia homoeocarpa [2]) was “not effective”, the “fungal growth (% plate coverage)” value ([3]; 50 ppm) was 86% and the “fungal growth (% plate coverage)” value ([3]; 100 ppm) was 51%. For the same substance, the “fungal growth compared with 100, 50 or 0 ppm (Tukey test)” value ([3]; 250, 500 or 1000 ppm, p<0.05) was “significantly lower”, the “fungal growth (% plate coverage)” value ([3]; 250 ppm) was 15% and the “fungal growth (% plate coverage)” value ([3]; 500 ppm) was 7%. For the same substance, the “fungal growth (% plate coverage)” value ([3]; 1000 ppm) was 6%, the “fungal coverage of the plates” value ([4]; 50 ppm) was 80% and the “fungal coverage of the plates” value ([4]; 100 ppm) was 80%. For the same substance, the “fungal growth compared with 100, 50 or 0 ppm (Tukey test)” value ([4]; 250, 500 or 1000 ppm, p<0.05) was “significantly lower”, the “fungal coverage of the plates” value ([4]; 250 ppm) was 51% and the “fungal coverage of the plates” value ([4]; 500 ppm) was 25%. The “fungal coverage of the plates” value ([4]; 1000 ppm) was 14%, the “fungal growth (% plate coverage)” value ([5]; 50 ppm) was 50% and the “fungal growth (% plate coverage)” value ([5]; 100 ppm) was 35%. The “fungal growth compared with 100, 50 or 0 ppm (Tukey test)” value ([5]; 250, 500 or 1000 ppm, p<0.05) was “significantly lower”, the “fungal growth (% plate coverage)” value ([5]; 250 ppm) was 7% and the “fungal growth (% plate coverage)” value ([5]; 500 ppm) was 4%. For the same substance, the “concentration that can significantly inhibit the growth for at least 2 weeks” value (IM114 (Monilinia); in general, in vitro, PD broth) was 250-500 ppm, the “concentration showing significant fungal growth reduction” value (IM114 (Monilinia); p<0.05) was 100 ppm and the “concentration that can significantly inhibit the growth for at least 2 weeks” value (IM115 (Monilinia); in general, in vitro, PD broth) was 250-500 ppm. For the same substance, the “concentration showing significant fungal growth reduction” value (IM115 (Monilinia); p<0.05) was 100 ppm.
